Test results as given in publication PMC11062894, “Protein-based bandpass filters for controlling cellular signaling with chemical inputs” (Nature Chemical Biology, 2023).
“Also recorded” adds a separate entry of the source.

Assays:
LD3 [1] = assay: SPR drug sensitivity of drug receptor variants (5 µM analyte mixed with 10 µM inhibitor, LD3 immobilized chip); assay type: binding; details: for drug resistance to venetoclax (binding response to LD3): 5 µM Bcl2 or variant + 10 µM Venetoclax
Method: Drug IC50 values for disrupting heterodimers were measured on a Biacore 8K device. A 5 µM portion of analyte was mixed with 10 µM of BclXL or Bcl2 inhibitors according to the analyte. The mixtures of analyte and drug were injected onto the LD3 immobilized channel. […]
(§1) Bcl2high-v(2,4,5) measured by SPR. 5 μM of Bcl2 or indicated variants were mixed with 10 μM of […]

LD3 [2] = assay: SPR assay for protein–protein binding affinities (drug receptor variants over immobilized LD3); parameters: unit not given here; details: Supp Fig 6a
Method: SPR measurements were performed on a Biacore 8K device (GE Healthcare). The mutual designed binder (LD3) was immobilized on a CM5 chip (GE Life Science) as a ligand with the concentration at 5 μg ml^−1 for 120 s contact time in pH 4.5 sodium acetate solutions. Serial dilutions of the analytes (BclXL or Bcl2 and their variants) in HBS-EP buffer (10 mM HEPES, 150 mM NaCl, 3 mM EDTA and 0.005% surfactant P20; GE Life Science) were flowed over the immobilized chips. After each injection cycle, surface regeneration was performed using 10 mM NaOH (pH 11.95). Affinities (Kd) were obtained using a steady binding model of the equilibrium model with Biacore 8K evaluation software. […]
Dissociation constant measurement of BclXLhigh-v(1-3) and LD3. Equilibrium curves are fitted using
BclXLhigh-v1 (purple), BclXLhigh-v2 (blue), […]
Supplementary Figure 6: Binding affinities and drug resistances of Bcl2high-v(2,4,5) assessed by
a) Measurement of dissociation constants for Bcl2high-v(2,4,5) and LD3 interactions. Equilibrium curves
as §1

[3] = tested on: GEMS receptors with CBPvene (Bcl2–LD3 and Bcl2high variants), STAT3-driven SEAP in HEK293T cells; assay: GEMS SEAP reporter assay, CBPvene (Bcl2high, LD3-v and Bcl2-v variants) with venetoclax; assay type: cell-based; details: Supp Fig 5c; for behavior of Bcl2high variants screened in CBP constructs: venetoclax exceeding 100 nM

| Substance | drug resistance to venetoclax (binding response to LD3) (LD3 [1]) | SPR equilibrium binding response to LD3 (LD3 [2]; head: Venetoclax (nM) 1) | SEAP, screening of Bcl2high variants (raw) ([3]; Venetoclax 0) | SEAP, screening of Bcl2high variants, Normalized ([3]; Venetoclax 0) | SEAP, screening of Bcl2high variants (raw) ([3]; Venetoclax 0.0001) | SEAP, screening of Bcl2high variants, Normalized ([3]; Venetoclax 0.0001) | SEAP, screening of Bcl2high variants (raw) ([3]; Venetoclax 0.001) | SEAP, screening of Bcl2high variants, Normalized ([3]; Venetoclax 0.001) | SEAP, screening of Bcl2high variants (raw) ([3]; Venetoclax 0.01) | SEAP, screening of Bcl2high variants, Normalized ([3]; Venetoclax 0.01) | SEAP, screening of Bcl2high variants (raw) ([3]; Venetoclax 0.1) | SEAP, screening of Bcl2high variants, Normalized ([3]; Venetoclax 0.1) | SEAP, screening of Bcl2high variants (raw) ([3]; Venetoclax 1) | SEAP, screening of Bcl2high variants, Normalized ([3]; Venetoclax 1) | SEAP, screening of Bcl2high variants (raw) ([3]; Venetoclax 10) | SEAP, screening of Bcl2high variants, Normalized ([3]; Venetoclax 10) | SEAP, screening of Bcl2high variants (raw) ([3]; Venetoclax 100) | SEAP, screening of Bcl2high variants, Normalized ([3]; Venetoclax 100) | SEAP, screening of Bcl2high variants (raw) ([3]; Venetoclax 1000) | SEAP, screening of Bcl2high variants, Normalized ([3]; Venetoclax 1000) | further results |
| --- | --- | --- | --- | --- | --- | --- | --- | --- | --- | --- | --- | --- | --- | --- | --- | --- | --- | --- | --- | --- | --- |
| Bcl2: wild-type Bcl2, druglow receptor | completely inhibited | – | – | – | – | – | – | – | – | – | – | – | – | – | – | – | – | – | – | – | – |
| Bcl2high-v4: Bcl2 variant (G101V) | intermediate binding responses; also recorded: more resistant than Bcl2high-v2 | 2.1472 | 6.603 | 2.711 | 4.145 | 0 | 8.202 | 4.476 | 7.174 | 3.342 | 7.666 | 3.884 | 5.264 | 1.235 | 24.5053 | 22.4596 | 94.7979 | 100 | 68.7379 | 71.253 | SPR equilibrium binding response to LD3 (LD3 [2]; head: Venetoclax (nM) 3.9): 10.112; SPR equilibrium binding response to LD3 (LD3 [2]; head: Venetoclax (nM) 15.6): 33.8883; SPR equilibrium binding response to LD3 (LD3 [2]; head: Venetoclax (nM) 62.5): 70.0059; behavior of Bcl2high variants screened in CBP constructs [3]: sharp decrease |
| Bcl2high-v5: Bcl2 variant (D103Y) | intermediate binding responses | 0.849 | 2.765 | 3.49 | 2.523 | 2.743 | 3.266 | 5.042 | 2.791 | 3.572 | 1.758 | 0.3721 | 1.638 | 0 | 7.093 | 16.9022 | 33.9111 | 100 | 29.4352 | 86.1311 | SPR equilibrium binding response to LD3 (LD3 [2]; head: Venetoclax (nM) 3.9): 3.873; SPR equilibrium binding response to LD3 (LD3 [2]; head: Venetoclax (nM) 15.6): 14.2982; SPR equilibrium binding response to LD3 (LD3 [2]; head: Venetoclax (nM) 62.5): 37.6477; behavior of Bcl2high variants screened in CBP constructs [3]: sharp decrease |
| Bcl2high-v7: Bcl2 variant (D103E) | – | – | 6.691 | 0 | 7.426 | 0.7213 | 7.62 | 0.9112 | 12.5658 | 5.763 | 10.093 | 3.337 | 14.5573 | 7.717 | 26.197 | 19.1352 | 97.9682 | 89.5427 | 108.628 | 100 | – |
| BclXL: wild-type BclXL, druglow receptor | – | – | – | – | – | – | – | – | – | – | – | – | – | – | – | – | – | – | – | – | drug resistance to A-1155463 (binding response to LD3) (LD3 [1]; 5 µM BclXL or variant + 10 µM A-1155463): completely inhibited |
